Marks after values point to notes of the source that are not given here.
Experiments:
S100A12 = experiment: Scalp tape strip S100A12 protein; assay type: in vivo, human
Method: Subjects are enrolled in a double-blind, randomized study for all test groups and have Baseline and Week 3 measurements of scalp health taken for flaking, itch and scalp health endpoints. Subjects take home a test product(s) and are instructed on use of test products throughout the study. Test products are solubilized in a hydroalcoholic leave-on formulation. Azoxystrobin raw material is sourced from AK Scientific Inc. (Union City, Calif.) as >97% pure. Azoxystrobin scalp treatment is prepared from a slurry of azoxystrobin in ethanol that is formulated to 0.1% (w/v) in a base chassis of 50% ethanol, 0.35% Ultrez 21 (rheology modifier), 0.05% neutrol TE and water (q.s.). […] Biomarkers of scalp health, including biomarkers of inflammation, itch, oxidative stress and barrier integrity are assessed by non-invasive tape strip sampling of the scalp surface to determine therapeutic resolution. All biomarkers are analyzed from D-Squame® scalp tape samples that are collected from the scalp of subjects before and after scalp treatment with either azoxystrobin or vehicle (Baseline, and Week 3 respectively). These are extracted and analyzed according to published methods (International Journal of Dermatology 2011, 50, 102-113, incorporated by reference herein). […] S100A12 protein is analyzed to determine the impact of scalp treatment on active inflammatory disease. […]

Histamine = experiment: Scalp tape strip histamine (HPLC/MS/MS); assay type: in vivo, human
Method: Subjects are enrolled in a double-blind, randomized study for all test groups and have Baseline and Week 3 measurements of scalp health taken for flaking, itch and scalp health endpoints. Subjects take home a test product(s) and are instructed on use of test products throughout the study. Test products are solubilized in a hydroalcoholic leave-on formulation. Azoxystrobin raw material is sourced from AK Scientific Inc. (Union City, Calif.) as >97% pure. Azoxystrobin scalp treatment is prepared from a slurry of azoxystrobin in ethanol that is formulated to 0.1% (w/v) in a base chassis of 50% ethanol, 0.35% Ultrez 21 (rheology modifier), 0.05% neutrol TE and water (q.s.). […]
Biomarkers of scalp health, including biomarkers of inflammation, itch, oxidative stress and barrier integrity are assessed by non-invasive tape strip sampling of the scalp surface to determine therapeutic resolution. All biomarkers are analyzed from D-Squame® scalp tape samples that are collected from the scalp of subjects before and after scalp treatment with either azoxystrobin or vehicle (Baseline, and Week 3 respectively). These are extracted and analyzed according to published methods (International Journal of Dermatology 2011, 50, 102-113, incorporated by reference herein). […]
Histamine is analyzed by gradient reversed-phase HPLC/MS/MS to evaluate scalp itch. […]

human scalp (dandruff) = experiment: Self-assessment questionnaire for itch perception; assay type: in vivo
Method: Subjects are enrolled in a double-blind, randomized study for all test groups and have Baseline and Week 3 measurements of scalp health taken for flaking, itch and scalp health endpoints. Subjects take home a test product(s) and are instructed on use of test products throughout the study. Test products are solubilized in a hydroalcoholic leave-on formulation. Azoxystrobin raw material is sourced from AK Scientific Inc. (Union City, Calif.) as >97% pure. Azoxystrobin scalp treatment is prepared from a slurry of azoxystrobin in ethanol that is formulated to 0.1% (w/v) in a base chassis of 50% ethanol, 0.35% Ultrez 21 (rheology modifier), 0.05% neutrol TE and water (q.s.). Vehicle scalp treatment is prepared similarly without the addition of azoxystrobin raw material. Subjects apply either azoxystrobin or vehicle scalp treatments daily for 3 weeks. Self-assessment questionnaires for itch perception are administered to each subject at Baseline and Week 3. Itch perception is quantified by each subject as severity of symptoms over the past 24 hours on a 7 point scale: 0=none, 1=slight, 2=slight to moderate, 3=moderate, 4=moderate to severe; 5=severe; 6=very severe.

[1] = 0.1% leave-on daily, Week 3, scalp tape strips

SMILES: CO/C=C(/C(=O)OC)c1ccccc1Oc1cc(Oc2ccccc2C#N)ncn1 [Azoxystrobin]
- S100A12 Results % Change from Baseline (S100A12; [1]): −71.2* %
- reduction of S100A12 levels (S100A12; compared to a placebo control): 71%
- Histamine Results % Change from Baseline (Histamine; [1]): 23.8%
- histamine reduction compared to placebo control or baseline values (in words) (Histamine; 3 weeks of treatment): does not significantly reduce histamine
- Mean Itch Severity at Week 3 (human scalp (dandruff); 7 point scale 0-6, Common Baseline Severity = 3.1, 0.1% leave-on daily): 1.5*
- reduction in itch perception (human scalp (dandruff); compared to a placebo control): 48%

From patent US20220192955A1, “AZOXYSTROBIN EFFICACY IN SCALP HEALTH” (The Procter & Gamble Company, priority 2020, published 2022)
